Key:
[1] = Pharmacokinetic study in mice; type: in vivo, SD mice
Procedure: The following experimental scheme was used to study the pharmacokinetic behavior of the compound of the present invention in mice and evaluate its pharmacokinetic characteristics.
Experimental scheme: 3 healthy SD mice, male, weighing […], were given 100 mg/kg compound by gavage with a volume of 10 mL/kg, prepared with […] (w/v). Before the test, they were fasted for 12 hours and freely drank water. Food was uniformly consumed 4 h after administration.
Three healthy SD mice, male, weighing […], were given 1 mg/kg compound intravenously with a volume of 5 mL/kg, prepared with 5% DMSO/15% solutol %80% PBS (w/v). Before the test, they were fasted for 12 hours and freely drank water. Food was uniformly consumed 4 h after administration.
0.1 mL of venous blood was taken through the submaxillary venous plexus of mice at 0.08 h, 0.25 h, 0.5 h, 1 h, 2 h, 4 h, 8 h, 24 h after gavage administration and 0.08 h, 0.25 h, 0.5 h, 1 h, 2 h, 4 h, 8 h, 24 h after intravenous administration, placed in a heparin test tube, centrifuged at 11000 rpm for 5 min, and plasma was separated, the concentration of compounds in plasma was determined by liquid chromatography-tandem mass spectrometry.

IKZF1 = biological target: T1, IKZF1 (Homo sapiens, UniProt Q13422+Q96SW2); test: Degradation of IKZF1 in L363 cells by Western blot; type: cell-based; conditions: compound 1000 nM, 16 hours
T1 construct: endogenous in cells; host or cells: L363 cells
T1 sequence (Q13422 whole entry): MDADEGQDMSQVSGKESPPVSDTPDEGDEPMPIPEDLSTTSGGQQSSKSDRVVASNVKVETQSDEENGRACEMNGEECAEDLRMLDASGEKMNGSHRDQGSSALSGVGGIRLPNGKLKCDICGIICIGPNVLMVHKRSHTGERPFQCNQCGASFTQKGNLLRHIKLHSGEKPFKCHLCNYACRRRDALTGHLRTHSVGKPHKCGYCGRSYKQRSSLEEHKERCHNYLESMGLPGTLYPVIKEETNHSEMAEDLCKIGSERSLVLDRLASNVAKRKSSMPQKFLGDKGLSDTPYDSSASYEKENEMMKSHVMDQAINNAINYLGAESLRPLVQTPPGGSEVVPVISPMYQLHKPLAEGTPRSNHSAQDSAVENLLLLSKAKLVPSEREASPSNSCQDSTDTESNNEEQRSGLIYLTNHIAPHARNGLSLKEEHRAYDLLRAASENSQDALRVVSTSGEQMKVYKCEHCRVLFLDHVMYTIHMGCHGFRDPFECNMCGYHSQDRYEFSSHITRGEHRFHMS
T1 sequence (Q96SW2 whole entry): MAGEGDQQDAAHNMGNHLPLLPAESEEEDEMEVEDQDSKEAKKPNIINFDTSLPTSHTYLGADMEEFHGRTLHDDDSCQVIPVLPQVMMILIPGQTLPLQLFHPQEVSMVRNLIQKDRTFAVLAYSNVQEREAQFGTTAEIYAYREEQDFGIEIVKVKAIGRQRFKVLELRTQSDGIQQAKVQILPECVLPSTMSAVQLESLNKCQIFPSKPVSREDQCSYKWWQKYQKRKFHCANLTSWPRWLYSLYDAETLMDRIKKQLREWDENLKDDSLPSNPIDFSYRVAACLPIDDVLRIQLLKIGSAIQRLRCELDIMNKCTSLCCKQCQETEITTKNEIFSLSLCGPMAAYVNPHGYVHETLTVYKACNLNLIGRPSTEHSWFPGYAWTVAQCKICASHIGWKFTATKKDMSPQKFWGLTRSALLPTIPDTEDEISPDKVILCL
T1 sequence (Q16531 whole entry partner): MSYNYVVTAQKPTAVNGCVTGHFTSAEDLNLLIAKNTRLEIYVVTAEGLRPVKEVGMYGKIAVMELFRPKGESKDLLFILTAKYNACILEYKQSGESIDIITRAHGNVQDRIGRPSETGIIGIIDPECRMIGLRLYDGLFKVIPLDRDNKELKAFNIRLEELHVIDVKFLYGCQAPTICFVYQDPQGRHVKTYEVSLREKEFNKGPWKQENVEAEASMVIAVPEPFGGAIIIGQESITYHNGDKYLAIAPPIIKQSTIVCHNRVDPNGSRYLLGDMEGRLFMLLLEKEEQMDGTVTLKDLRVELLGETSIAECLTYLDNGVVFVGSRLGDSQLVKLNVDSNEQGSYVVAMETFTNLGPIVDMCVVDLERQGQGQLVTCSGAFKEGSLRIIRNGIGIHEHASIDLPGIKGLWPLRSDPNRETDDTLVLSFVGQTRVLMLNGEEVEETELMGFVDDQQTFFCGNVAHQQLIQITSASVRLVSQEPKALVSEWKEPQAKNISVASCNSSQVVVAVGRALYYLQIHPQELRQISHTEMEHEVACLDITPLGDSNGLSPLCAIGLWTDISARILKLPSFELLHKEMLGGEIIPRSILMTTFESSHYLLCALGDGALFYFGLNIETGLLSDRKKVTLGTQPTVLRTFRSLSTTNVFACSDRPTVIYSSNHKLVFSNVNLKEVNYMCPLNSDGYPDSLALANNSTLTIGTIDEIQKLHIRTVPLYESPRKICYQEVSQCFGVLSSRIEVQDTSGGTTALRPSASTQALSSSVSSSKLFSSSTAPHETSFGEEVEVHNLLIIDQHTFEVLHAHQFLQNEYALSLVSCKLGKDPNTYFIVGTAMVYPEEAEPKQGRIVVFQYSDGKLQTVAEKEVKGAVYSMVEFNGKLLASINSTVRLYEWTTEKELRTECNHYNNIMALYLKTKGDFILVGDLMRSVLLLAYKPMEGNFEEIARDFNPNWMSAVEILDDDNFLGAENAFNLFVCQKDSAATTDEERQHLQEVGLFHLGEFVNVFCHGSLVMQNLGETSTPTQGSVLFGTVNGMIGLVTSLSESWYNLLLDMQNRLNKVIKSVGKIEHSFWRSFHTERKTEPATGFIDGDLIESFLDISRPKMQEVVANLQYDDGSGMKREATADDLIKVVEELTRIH
Procedure: (§1) The 24-well cell culture plate was inoculated with 0.95 mL L363 cells (Nanjing Co-bioer) per well with a cell density of 6×10^5 cells/well. The cell plate was placed in a 5% carbon dioxide incubator and cultured at 37° C. for 8 hours, then 50 μL of compound solution was added. The final concentration of the compound was 1000 nM. After continuing to culture for 16 hours, the cells were collected into a 1.5 mL centrifuge tube and centrifuged at 3000 rpm and 4° C. for 5 minutes. Cell precipitation was washed twice with 1×DPBS, resuspended cells were lysed with 100 μL lysate (cell lysate was Western and IP cell lysate (Beyotime), supplemented with 1 mM mixture of phenylmethylsulfonyl fluoride and protease inhibitor (Beyotime)), left on ice for 30 minutes, then centrifuged at 14000 g at 4° C. for 10 minutes, and the supernatant was taken to detect IKZF1 and IKZF3 protein level by Western blot.
(§2) The total protein concentration in the supernatant of cell lysis was determined by BCA protein quantitative kit (Tiangen). According to the concentration of total protein detected by BCA, the supernatant was adjusted to […] with PBS and 5×SDS-PAGE protein loading buffer (Beyotime), bathed in water at 100° C. for 10 minutes, then placed in ice bath for 5 minutes, centrifuged at 14000 g and 4° C. for 5 minutes, and then collected as WB loading sample. Prefabricated glue (KeyGEN) was used for protein electrophoresis with a loading amount of 10 μL (total protein 2 μg). After Tris-MOPS-SDS electrophoresis solution (Adamas), 120V constant pressure electrophoresis was performed. After electrophoresis, the protein on the adhesive strip was transferred to PVDF membrane with a constant current of […] for 50 minutes. After the membrane was transferred, the membrane was incubated in 5% bovine serum albumin solution for 2 hours at room temperature. After blocking, PVDF membranes were incubated with IKZF1 primary antibody (CST) and IKZF3 primary antibody (Abcam) overnight at 4°, the membranes were washed with TBST buffer (2.4 g Tris, 8.8 g NaCl, 1.5 mL Tween 20, pH adjusted to 7.4, constant volume to 1 L) for 30 minutes, incubated with secondary antibody (Abcam) for 2 hours at room temperature, finally incubated with Clarity Western ECL Substrate (BIO-RAD) for 5 minutes for luminescence development, chemiluminescence imaging system (Clinx, chemiScope 6200 Touch) was used for development and protein mapping photography. The protein map was analyzed by Clinx chemiluminescence analysis software for grayscale values. Using the formula: grayscale correction value=(target protein grayscale value/corresponding internal reference grayscale value)×10^3, the grayscale correction value of each sample was calculated. The degradation rate was calculated by comparing with the grayscale correction value of the control group.

IKZF3 = biological target: T2, IKZF3 (Homo sapiens, UniProt Q96SW2+Q9UKT9); test: Degradation of IKZF3 in L363 cells by Western blot; type: cell-based; conditions: compound 1000 nM, 16 hours
T2 construct: endogenous in cells; host or cells: L363 cells
T2 sequence (Q9UKT9 whole entry): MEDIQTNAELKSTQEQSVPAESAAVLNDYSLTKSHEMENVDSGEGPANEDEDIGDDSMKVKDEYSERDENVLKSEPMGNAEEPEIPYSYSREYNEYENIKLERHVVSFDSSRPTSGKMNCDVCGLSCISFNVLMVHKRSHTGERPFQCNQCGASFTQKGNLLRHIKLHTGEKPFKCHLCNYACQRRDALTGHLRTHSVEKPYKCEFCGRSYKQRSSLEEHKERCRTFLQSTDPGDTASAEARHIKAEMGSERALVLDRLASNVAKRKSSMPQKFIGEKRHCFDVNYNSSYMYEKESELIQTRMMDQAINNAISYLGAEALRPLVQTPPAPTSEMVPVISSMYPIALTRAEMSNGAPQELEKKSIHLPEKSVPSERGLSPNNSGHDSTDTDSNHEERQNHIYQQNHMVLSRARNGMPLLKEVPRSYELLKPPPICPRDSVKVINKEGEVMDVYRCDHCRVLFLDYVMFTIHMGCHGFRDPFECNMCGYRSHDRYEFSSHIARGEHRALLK
T2 sequence (Q96SW2 whole entry): as the sequence (Q96SW2 whole entry) above
T2 sequence (Q16531 whole entry partner): as the sequence (Q16531 whole entry partner) above
Procedure: as §1, §2

[2] = male, SD, mouse, po, gavage administration 100 mg/kg, plasma

- CL_pred ([1]; intravenous injection 1 mg/kg): 6.7 mL/min/kg
- Vss_pred ([1]; intravenous injection 1 mg/kg): 4.6 L/kg
- AUC(0-t) ([1]; male, SD, mouse, intravenous injection 1 mg/kg, plasma): 2150 ng·h/mL
- bioavailability ([1]; male, SD, mouse, plasma, po, gavage 100 mg/kg vs intravenous 1 mg/kg): 14.2%
- AUC(0-t) [1, 2]: 30500 ng·h/mL
- Cmax [1, 2]: 1860 ng/mL
- IKZF1 degradation rate (%) (IKZF1): 26.7 ± 2.4%
- IKZF3 degradation rate (%) (IKZF3): 8.4 ± 6.0%
Structure (SMILES): CC(C)(O)c1cc2nn(C3CCN(CCCC4CCN(c5ccc6c(c5)C(=O)N(C5CCC(=O)NC5=O)C6=O)CC4)CC3)cc2cc1NC(=O)c1cccc(C(F)(F)F)n1 (centres unmarked) [Example 6, N-(2-(1-(3-(1-(2-(2,6-dioxopiperidin-3-yl)-1,3-dioxoisoindolin-5-yl)piperidin-4-yl)propyl)piperidin-4-yl)-6-(2-hydroxyprop-2-yl)-2H-indazol-5-yl)-6-(trifluoromethyl) pyridinecarboxamide]

Source: US12624019B2, “Indazole derivative, and preparation method therefor and use thereof” (Leadingtac Pharmaceutical (Shaoxing) Co., Ltd., priority 2020, dated 2026)
